# Laboratory results published in patent US9340590B2 (priority 2011, dated 2016).
# Read-outs that look alike come from different tables or passages of the source. Positions of bridges follow the written chain, without caps; N, C: chain ends. Non-standard residues stand in square brackets, D forms with d. Residues, ends and D or L forms follow the SMILES beside them. Nva = CCC[C@H](N)C(=O)O
# Legend:
# Assay in all cases: cell-based
# hNav1.7 = hNav1.7 (Homo sapiens, UniProt Q15858); assay type: cell-based; details: IonWorks Quattro, read-out: IWQ Use Nav1.7
# hNav1.5 = hNav1.5 (Homo sapiens, UniProt Q14524)
# Chain of hNav1.5 (Q14524 whole entry, looked up): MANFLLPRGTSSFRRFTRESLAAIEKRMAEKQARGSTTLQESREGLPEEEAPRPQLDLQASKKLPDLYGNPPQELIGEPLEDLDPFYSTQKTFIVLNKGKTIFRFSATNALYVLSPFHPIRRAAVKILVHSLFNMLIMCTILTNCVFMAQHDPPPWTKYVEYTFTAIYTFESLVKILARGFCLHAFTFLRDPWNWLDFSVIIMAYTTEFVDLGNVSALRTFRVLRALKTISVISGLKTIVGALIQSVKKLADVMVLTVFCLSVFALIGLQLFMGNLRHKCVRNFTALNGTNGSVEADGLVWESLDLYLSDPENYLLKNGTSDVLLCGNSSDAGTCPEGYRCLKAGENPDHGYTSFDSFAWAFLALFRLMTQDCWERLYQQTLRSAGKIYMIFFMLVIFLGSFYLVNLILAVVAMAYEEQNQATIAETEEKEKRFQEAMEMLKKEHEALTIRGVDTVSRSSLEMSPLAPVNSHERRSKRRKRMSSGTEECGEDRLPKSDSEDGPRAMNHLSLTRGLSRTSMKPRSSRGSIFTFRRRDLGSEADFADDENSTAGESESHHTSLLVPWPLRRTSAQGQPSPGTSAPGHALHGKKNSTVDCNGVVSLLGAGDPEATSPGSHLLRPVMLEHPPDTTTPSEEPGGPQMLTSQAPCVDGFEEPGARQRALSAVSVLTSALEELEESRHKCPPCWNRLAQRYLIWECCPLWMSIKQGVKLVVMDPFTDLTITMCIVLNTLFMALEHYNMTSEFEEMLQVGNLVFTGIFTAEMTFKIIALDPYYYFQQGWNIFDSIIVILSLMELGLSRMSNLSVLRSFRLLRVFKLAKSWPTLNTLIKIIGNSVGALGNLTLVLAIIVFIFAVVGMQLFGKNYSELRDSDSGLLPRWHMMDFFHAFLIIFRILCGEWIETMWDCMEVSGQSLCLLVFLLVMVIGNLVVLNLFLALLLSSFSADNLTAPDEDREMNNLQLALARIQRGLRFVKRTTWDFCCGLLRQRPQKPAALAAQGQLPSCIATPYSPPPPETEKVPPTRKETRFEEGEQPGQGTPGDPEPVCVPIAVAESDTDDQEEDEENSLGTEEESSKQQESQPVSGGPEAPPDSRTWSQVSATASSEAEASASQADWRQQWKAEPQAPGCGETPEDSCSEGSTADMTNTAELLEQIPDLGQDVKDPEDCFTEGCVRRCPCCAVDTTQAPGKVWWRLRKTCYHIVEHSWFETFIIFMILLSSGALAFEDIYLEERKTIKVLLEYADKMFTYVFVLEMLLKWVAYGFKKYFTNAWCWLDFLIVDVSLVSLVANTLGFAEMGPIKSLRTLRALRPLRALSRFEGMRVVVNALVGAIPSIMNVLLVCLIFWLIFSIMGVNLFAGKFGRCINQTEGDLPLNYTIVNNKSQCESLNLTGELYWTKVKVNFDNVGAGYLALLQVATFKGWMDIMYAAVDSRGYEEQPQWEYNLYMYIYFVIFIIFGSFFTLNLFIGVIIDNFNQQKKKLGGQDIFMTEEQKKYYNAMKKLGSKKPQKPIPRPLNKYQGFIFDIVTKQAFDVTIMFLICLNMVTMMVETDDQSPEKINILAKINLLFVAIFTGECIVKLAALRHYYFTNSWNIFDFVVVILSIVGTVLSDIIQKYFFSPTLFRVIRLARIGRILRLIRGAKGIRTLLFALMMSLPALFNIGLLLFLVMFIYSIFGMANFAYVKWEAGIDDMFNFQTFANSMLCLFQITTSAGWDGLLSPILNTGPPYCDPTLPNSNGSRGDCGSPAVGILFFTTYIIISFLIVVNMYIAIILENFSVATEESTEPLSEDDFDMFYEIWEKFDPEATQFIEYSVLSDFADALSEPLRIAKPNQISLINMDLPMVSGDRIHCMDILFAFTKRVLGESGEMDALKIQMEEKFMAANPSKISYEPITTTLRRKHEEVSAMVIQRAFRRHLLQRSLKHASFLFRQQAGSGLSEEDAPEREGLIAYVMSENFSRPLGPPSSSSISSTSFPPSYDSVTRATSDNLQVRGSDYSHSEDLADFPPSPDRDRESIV
# hNav1.3 = hNav1.3 (Homo sapiens, UniProt Q9NY46); details: IonWorks Quattro, read-out: IWQ Use Nav1.3
# Chain of hNav1.3 (Q9NY46 whole entry, looked up): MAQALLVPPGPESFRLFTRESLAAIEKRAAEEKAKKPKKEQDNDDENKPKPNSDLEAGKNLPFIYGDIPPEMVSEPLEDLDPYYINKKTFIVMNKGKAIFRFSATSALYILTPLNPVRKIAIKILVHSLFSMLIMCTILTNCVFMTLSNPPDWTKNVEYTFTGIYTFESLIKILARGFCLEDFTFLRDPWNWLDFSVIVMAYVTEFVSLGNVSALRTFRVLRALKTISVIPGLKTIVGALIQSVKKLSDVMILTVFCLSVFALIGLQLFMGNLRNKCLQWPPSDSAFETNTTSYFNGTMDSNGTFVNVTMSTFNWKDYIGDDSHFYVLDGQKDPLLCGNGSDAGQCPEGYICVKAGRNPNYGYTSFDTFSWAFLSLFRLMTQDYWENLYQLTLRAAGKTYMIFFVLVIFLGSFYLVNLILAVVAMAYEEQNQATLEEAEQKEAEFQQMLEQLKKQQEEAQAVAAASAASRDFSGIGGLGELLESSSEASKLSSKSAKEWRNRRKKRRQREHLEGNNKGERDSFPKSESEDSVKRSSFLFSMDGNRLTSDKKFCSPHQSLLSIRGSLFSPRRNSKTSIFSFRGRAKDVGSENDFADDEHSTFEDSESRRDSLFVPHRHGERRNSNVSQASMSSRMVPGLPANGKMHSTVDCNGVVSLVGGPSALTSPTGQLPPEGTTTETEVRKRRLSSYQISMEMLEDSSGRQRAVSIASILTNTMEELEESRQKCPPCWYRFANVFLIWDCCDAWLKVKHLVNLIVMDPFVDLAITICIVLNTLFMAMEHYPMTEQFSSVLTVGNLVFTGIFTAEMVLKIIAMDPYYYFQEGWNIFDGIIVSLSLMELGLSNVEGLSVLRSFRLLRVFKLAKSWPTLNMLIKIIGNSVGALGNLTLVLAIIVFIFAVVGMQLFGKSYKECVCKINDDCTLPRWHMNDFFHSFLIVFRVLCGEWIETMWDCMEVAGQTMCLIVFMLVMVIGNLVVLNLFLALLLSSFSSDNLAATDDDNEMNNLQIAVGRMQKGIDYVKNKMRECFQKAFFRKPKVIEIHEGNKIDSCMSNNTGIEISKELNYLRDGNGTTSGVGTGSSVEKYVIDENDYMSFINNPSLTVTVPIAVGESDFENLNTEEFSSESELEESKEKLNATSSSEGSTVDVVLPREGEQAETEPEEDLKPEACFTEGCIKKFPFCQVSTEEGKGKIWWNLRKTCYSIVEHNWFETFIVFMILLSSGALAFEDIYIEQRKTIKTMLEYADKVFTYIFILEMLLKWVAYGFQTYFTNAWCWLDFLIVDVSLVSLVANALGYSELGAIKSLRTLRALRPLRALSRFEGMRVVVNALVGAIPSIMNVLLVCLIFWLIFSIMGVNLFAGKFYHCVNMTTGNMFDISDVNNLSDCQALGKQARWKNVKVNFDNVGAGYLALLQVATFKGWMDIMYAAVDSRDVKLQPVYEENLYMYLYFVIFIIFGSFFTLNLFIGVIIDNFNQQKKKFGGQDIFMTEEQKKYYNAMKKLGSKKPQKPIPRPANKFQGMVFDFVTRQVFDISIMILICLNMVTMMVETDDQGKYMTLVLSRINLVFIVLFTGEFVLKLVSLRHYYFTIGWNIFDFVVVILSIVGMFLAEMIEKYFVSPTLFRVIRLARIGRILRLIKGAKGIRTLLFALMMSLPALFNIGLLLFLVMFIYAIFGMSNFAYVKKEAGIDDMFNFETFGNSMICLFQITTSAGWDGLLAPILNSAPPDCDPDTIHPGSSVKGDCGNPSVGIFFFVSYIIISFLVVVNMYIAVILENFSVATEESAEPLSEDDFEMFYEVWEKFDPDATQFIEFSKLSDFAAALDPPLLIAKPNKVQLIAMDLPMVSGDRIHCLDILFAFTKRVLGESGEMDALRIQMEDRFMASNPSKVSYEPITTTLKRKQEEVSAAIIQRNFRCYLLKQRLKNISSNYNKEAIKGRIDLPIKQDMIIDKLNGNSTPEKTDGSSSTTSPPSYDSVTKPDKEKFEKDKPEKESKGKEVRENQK
# [1] = clamped to −110 mV, depolarized to −10 mV, 5 min after compound, n=2
# [2] = IonWorks Quattro, use-dependent block, hNav1.5, read-out: IWQ Use Nav1.5
compound,measurement,setting,value
"CC[C@H](C)[C@@H]1NC(=O)[C@@H]2CSSC[C@@H]3NC(=O)[C@H](C(C)C)NC(=O)[C@H](CC(C)C)NC(=O)[C@H](CC(N)=O)NC(=O)[C@@H]4CCCN4C(=O)[C@H](CCCNC(=N)N)NC(=O)[C@H](CSSC[C@H](NC(=O)[C@@H](N)CC(=O)O)C(=O)N[C@@H](CC(C)C)C(=O)NCC(=O)N[C@@H](Cc4ccccc4)C(=O)N[C@@H](CCSC)C(=O)N[C@@H](CCCNC(=N)N)C(=O)N[C@@H](CCCCN)C(=O)N2)NC(=O)[C@H](CSSC[C@@H](C(=O)N[C@@H](Cc2c[nH]c4ccccc24)C(=O)N[C@@H](Cc2ccc(O)cc2)C(=O)N[C@H](C(=O)N[C@@H](Cc2ccccc2)C(N)=O)C(C)C)NC(=O)[C@H](Cc2c[nH]c4ccccc24)NC(=O)[C@H](CCCCN)NC(=O)[C@H](Cc2c[nH]cn2)NC(=O)[C@H]([C@@H](C)O)NC(=O)[C@H](CCCNC(=N)N)NC(=O)[C@H](CO)NC3=O)NC(=O)[C@H](CCCCN)NC(=O)[C@H](CC(=O)O)NC(=O)[C@H](CC(N)=O)NC(=O)[C@H](CC(=O)O)NC(=O)[C@@H]2CCCN2C1=O [compound 179] (H-DCLGFMRKCIPDNDKCCRPNLVCSRTHKWCWYVF-NH2; disulfide 2-17, 9-23, 16-30)",IC50,"hNav1.7; Table 25, use, […]",23.6 µM
same,IC50,"hNav1.5; Table 25, IonWorks Quattro, use, […], read-out: IWQ Use Nav1.5",10.8 µM
same,IC50,"hNav1.3; Table 25, use, […]",10.2 µM
"CC[C@H](C)[C@@H]1NC(=O)[C@@H]2CSSC[C@@H]3NC(=O)[C@H](C(C)C)NC(=O)[C@H](CC(C)C)NC(=O)[C@H](CC(N)=O)NC(=O)[C@@H]4CCCN4C(=O)[C@H](CCCNC(=N)N)NC(=O)[C@H](CSSC[C@H](NC(=O)[C@@H](N)CC(=O)O)C(=O)N[C@@H](CC(C)C)C(=O)NCC(=O)N[C@@H](Cc4ccccc4)C(=O)N[C@@H](CCCNC(=N)N)C(=O)N[C@@H](CCCNC(=N)N)C(=O)N[C@@H](CCCCN)C(=O)N2)NC(=O)[C@H](CSSC[C@@H](C(=O)N[C@@H](CCCCN)C(=O)N[C@@H](Cc2ccc(O)cc2)C(=O)N[C@H](C(=O)N[C@@H](Cc2ccccc2)C(N)=O)C(C)C)NC(=O)[C@H](Cc2c[nH]c4ccccc24)NC(=O)[C@H](CCCCN)NC(=O)[C@H](Cc2cnc[nH]2)NC(=O)[C@H]([C@@H](C)O)NC(=O)[C@H](CCCNC(=N)N)NC(=O)[C@H](CO)NC3=O)NC(=O)[C@H](CCCCN)NC(=O)[C@H](CC(=O)O)NC(=O)[C@H](CC(N)=O)NC(=O)[C@H](CC(=O)O)NC(=O)[C@@H]2CCCN2C1=O [SEQ ID NO: 64] (H-DCLGFRRKCIPDNDKCCRPNLVCSRTHKWCKYVF-NH2; disulfide 2-17, 9-23, 16-30)",IC50,hNav1.7; [1],6.98 µM
same,IC50,hNav1.5; IWQ Use Nav1.5,17.6 µM
same,IC50,hNav1.3; [1],5.9 µM
"CC[C@H](C)[C@@H]1NC(=O)[C@@H]2CSSC[C@@H]3NC(=O)[C@H](C(C)C)NC(=O)[C@H](CC(C)C)NC(=O)[C@H](CC(N)=O)NC(=O)[C@@H]4CCCN4C(=O)[C@H](CCCNC(=N)N)NC(=O)[C@H](CSSC[C@H](NC(=O)[C@@H](N)CC(=O)O)C(=O)N[C@@H](CC(C)C)C(=O)NCC(=O)N[C@@H](C)C(=O)N[C@@H](CCSC)C(=O)N[C@@H](CCCNC(=N)N)C(=O)N[C@@H](CCCCN)C(=O)N2)NC(=O)[C@H](CSSC[C@@H](C(=O)N[C@@H](CCCCN)C(=O)N[C@@H](Cc2ccc(O)cc2)C(=O)N[C@H](C(=O)N[C@@H](Cc2ccccc2)C(N)=O)C(C)C)NC(=O)[C@H](C)NC(=O)[C@H](CCCCN)NC(=O)[C@H](Cc2c[nH]cn2)NC(=O)[C@H]([C@@H](C)O)NC(=O)[C@H](CCCNC(=N)N)NC(=O)[C@H](CO)NC3=O)NC(=O)[C@H](CCCCN)NC(=O)[C@H](CC(=O)O)NC(=O)[C@H](CC(N)=O)NC(=O)[C@H](CC(=O)O)NC(=O)[C@@H]2CCCN2C1=O [compound 434] (H-DCLGAMRKCIPDNDKCCRPNLVCSRTHKACKYVF-NH2; disulfide 2-17, 9-23, 16-30)",IC50,"hNav1.7; use-dependent block, hNav1.7",> 5 µM
same,IC50,hNav1.5; [2],> 5 µM
same,IC50,"hNav1.3; use-dependent block, hNav1.3",> 5 µM
"CC[C@H](C)[C@@H]1NC(=O)[C@@H]2CSSC[C@@H]3NC(=O)[C@H](C(C)C)NC(=O)[C@H](CC(C)C)NC(=O)[C@H](CC(N)=O)NC(=O)[C@@H]4CCCN4C(=O)[C@H](CCCNC(=N)N)NC(=O)[C@H](CSSC[C@H](NC(=O)[C@@H](N)CC(=O)O)C(=O)N[C@@H](CC(C)C)C(=O)NCC(=O)N[C@@H](C)C(=O)N[C@@H](CCSC)C(=O)N[C@@H](CCCNC(=N)N)C(=O)N[C@@H](CCCCN)C(=O)N2)NC(=O)[C@H](CSSC[C@@H](C(=O)N[C@@H](CCCCN)C(=O)N[C@@H](Cc2ccc(O)cc2)C(=O)N[C@H](C(=O)N[C@@H](Cc2ccccc2)C(N)=O)C(C)C)NC(=O)[C@H](Cc2c[nH]c4ccccc24)NC(=O)[C@H](Cc2ccccc2)NC(=O)[C@H](Cc2c[nH]cn2)NC(=O)[C@H]([C@@H](C)O)NC(=O)[C@H](CCCNC(=N)N)NC(=O)[C@H](CO)NC3=O)NC(=O)[C@H](CCCCN)NC(=O)[C@H](CC(=O)O)NC(=O)[C@H](CC(N)=O)NC(=O)[C@H](CC(=O)O)NC(=O)[C@@H]2CCCN2C1=O [compound 764] (H-DCLGAMRKCIPDNDKCCRPNLVCSRTHFWCKYVF-NH2; disulfide 2-17, 9-23, 16-30)",IC50,"hNav1.7; use-dependent block, hNav1.7",4.1 µM
same,IC50,hNav1.5; [2],41.4 µM
same,IC50,"hNav1.3; use-dependent block, hNav1.3",> 5 µM
"CCC[C@@H]1NC(=O)CNC(=O)[C@H](CC(C)C)NC(=O)[C@@H](NC(=O)[C@@H](N)CC(=O)O)CSSC[C@@H]2NC(=O)[C@@H]3CSSC[C@@H](C(=O)N[C@@H](CCCCN)C(=O)N[C@@H](Cc4ccc(O)cc4)C(=O)N[C@H](C(=O)N[C@@H](Cc4ccccc4)C(N)=O)C(C)C)NC(=O)[C@H](Cc4c[nH]c5ccccc45)NC(=O)[C@H](CCC(=O)O)NC(=O)[C@H](Cc4c[nH]cn4)NC(=O)[C@H]([C@@H](C)O)NC(=O)[C@H](CCCNC(=N)N)NC(=O)[C@H](CO)NC(=O)[C@H](CSSC[C@H](NC(=O)[C@H](CCCCN)NC(=O)[C@H](CCCNC(=N)N)NC(=O)[C@H](CC(C)C)NC1=O)C(=O)N[C@@H]([C@@H](C)CC)C(=O)N1CCC[C@H]1C(=O)N[C@@H](CC(=O)O)C(=O)N[C@@H](CC(N)=O)C(=O)N[C@@H](CC(=O)O)C(=O)N[C@@H](CCCCN)C(=O)N3)NC(=O)[C@H](C(C)C)NC(=O)[C@H](CC(C)C)NC(=O)[C@H](CC(N)=O)NC(=O)[C@@H]1CCCN1C(=O)[C@H](CCCNC(=N)N)NC2=O [compound 708] (H-DCLG[Nva]LRKCIPDNDKCCRPNLVCSRTHEWCKYVF-NH2; disulfide 2-17, 9-23, 16-30)",IC50,"hNav1.7; use-dependent protocol, hNav1.7",0.37 µM
same,IC50,"hNav1.5; IonWorks Quattro, use-dependent protocol, hNav1.5, read-out: IWQ Use Nav1.5",31 µM
same,IC50,"hNav1.3; use-dependent protocol, hNav1.3",2.8 µM
"CC[C@H](C)[C@@H]1NC(=O)[C@@H]2CSSC[C@@H]3NC(=O)[C@H](C(C)C)NC(=O)[C@H](CC(C)C)NC(=O)[C@H](CC(N)=O)NC(=O)[C@@H]4CCCN4C(=O)[C@H](CCCNC(=N)N)NC(=O)[C@H](CSSC[C@H](NC(=O)[C@@H](N)CO)C(=O)N[C@@H](CC(C)C)C(=O)NCC(=O)N[C@@H](Cc4ccccc4)C(=O)N[C@@H](CCSC)C(=O)N[C@@H](CCCNC(=N)N)C(=O)N[C@@H](CCCCN)C(=O)N2)NC(=O)[C@H](CSSC[C@@H](C(=O)N[C@@H](CCCCN)C(=O)N[C@@H](Cc2ccc(O)cc2)C(=O)N[C@H](C(=O)N[C@@H](Cc2ccccc2)C(N)=O)C(C)C)NC(=O)[C@H](Cc2c[nH]c4ccccc24)NC(=O)[C@H](CCCCN)NC(=O)[C@H](Cc2c[nH]cn2)NC(=O)[C@H]([C@@H](C)O)NC(=O)[C@H](CCCNC(=N)N)NC(=O)[C@H](CO)NC3=O)NC(=O)[C@H](CCCCN)NC(=O)[C@H](CC(=O)O)NC(=O)[C@H](CC(N)=O)NC(=O)[C@H](CC(=O)O)NC(=O)[C@@H]2CCCN2C1=O [SEQ ID NO: 191] (H-SCLGFMRKCIPDNDKCCRPNLVCSRTHKWCKYVF-NH2; disulfide 2-17, 9-23, 16-30)",IC50,hNav1.7; [1],0.07 µM
same,IC50,"hNav1.5; IonWorks Quattro, clamped to −110 mV, depolarized to −10 mV, 5 min after compound, n=2, read-out: IWQ Use Nav1.5",9.4 µM
same,IC50,hNav1.3; [1],0.05 µM
"CCC[C@@H]1NC(=O)CNC(=O)[C@H](CC(C)C)NC(=O)[C@@H](NC(=O)[C@@H](N)CC(=O)O)CSSC[C@@H]2NC(=O)[C@@H]3CSSC[C@@H](C(=O)N[C@@H](CCCCN)C(=O)N[C@@H](Cc4ccc(O)cc4)C(=O)N[C@H](C(=O)N[C@@H](Cc4ccccc4)C(N)=O)C(C)C)NC(=O)[C@H](Cc4c[nH]c5ccccc45)NC(=O)[C@H](CCCCN)NC(=O)[C@H](Cc4c[nH]cn4)NC(=O)[C@H]([C@@H](C)O)NC(=O)[C@H](CCCNC(=N)N)NC(=O)[C@H](CO)NC(=O)[C@H](CSSC[C@H](NC(=O)[C@H](CCCCN)NC(=O)[C@H](CCCNC(=N)N)NC(=O)[C@H](Cc4ccccc4)NC1=O)C(=O)N[C@@H]([C@@H](C)CC)C(=O)N1CCC[C@H]1C(=O)N[C@@H](CC(=O)O)C(=O)N[C@@H](CC(N)=O)C(=O)N[C@@H](CC(=O)O)C(=O)N[C@@H](CCCCN)C(=O)N3)NC(=O)[C@H](C(C)C)NC(=O)[C@H](CC(C)C)NC(=O)[C@H](CC(N)=O)NC(=O)[C@@H]1CCCN1C(=O)[C@H](CCCNC(=N)N)NC2=O [compound 606] (H-DCLG[Nva]FRKCIPDNDKCCRPNLVCSRTHKWCKYVF-NH2; disulfide 2-17, 9-23, 16-30)",IC50,"hNav1.7; use-dependent block, hNav1.7",0.084 µM
same,IC50,hNav1.5; [2],7.8 µM
same,IC50,"hNav1.3; use-dependent block, hNav1.3",0.17 µM
